PMC11314561, “Design and Synthesis of Novel Aminoindazole-pyrrolo[2,3-b]pyridine Inhibitors of IKKα That Selectively Perturb Cellular Non-Canonical NF-κB Signalling” (Molecules, 2024)

How the values were obtained:
Assay in all cases: kinase panel
Assay type in all cases: biochemical
JNK3(h) = JNK3(h) (Homo sapiens, UniProt P53779)
Method in brief: (§1)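 % inhibition read-out; kinome panel of 231 kinases; one analogue run on a selected 98-kinase subset only.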

JAK3(h) = biological target: T1, JAK3(h) (Homo sapiens, UniProt P52333)
T1 sequence (P52333 1-1124): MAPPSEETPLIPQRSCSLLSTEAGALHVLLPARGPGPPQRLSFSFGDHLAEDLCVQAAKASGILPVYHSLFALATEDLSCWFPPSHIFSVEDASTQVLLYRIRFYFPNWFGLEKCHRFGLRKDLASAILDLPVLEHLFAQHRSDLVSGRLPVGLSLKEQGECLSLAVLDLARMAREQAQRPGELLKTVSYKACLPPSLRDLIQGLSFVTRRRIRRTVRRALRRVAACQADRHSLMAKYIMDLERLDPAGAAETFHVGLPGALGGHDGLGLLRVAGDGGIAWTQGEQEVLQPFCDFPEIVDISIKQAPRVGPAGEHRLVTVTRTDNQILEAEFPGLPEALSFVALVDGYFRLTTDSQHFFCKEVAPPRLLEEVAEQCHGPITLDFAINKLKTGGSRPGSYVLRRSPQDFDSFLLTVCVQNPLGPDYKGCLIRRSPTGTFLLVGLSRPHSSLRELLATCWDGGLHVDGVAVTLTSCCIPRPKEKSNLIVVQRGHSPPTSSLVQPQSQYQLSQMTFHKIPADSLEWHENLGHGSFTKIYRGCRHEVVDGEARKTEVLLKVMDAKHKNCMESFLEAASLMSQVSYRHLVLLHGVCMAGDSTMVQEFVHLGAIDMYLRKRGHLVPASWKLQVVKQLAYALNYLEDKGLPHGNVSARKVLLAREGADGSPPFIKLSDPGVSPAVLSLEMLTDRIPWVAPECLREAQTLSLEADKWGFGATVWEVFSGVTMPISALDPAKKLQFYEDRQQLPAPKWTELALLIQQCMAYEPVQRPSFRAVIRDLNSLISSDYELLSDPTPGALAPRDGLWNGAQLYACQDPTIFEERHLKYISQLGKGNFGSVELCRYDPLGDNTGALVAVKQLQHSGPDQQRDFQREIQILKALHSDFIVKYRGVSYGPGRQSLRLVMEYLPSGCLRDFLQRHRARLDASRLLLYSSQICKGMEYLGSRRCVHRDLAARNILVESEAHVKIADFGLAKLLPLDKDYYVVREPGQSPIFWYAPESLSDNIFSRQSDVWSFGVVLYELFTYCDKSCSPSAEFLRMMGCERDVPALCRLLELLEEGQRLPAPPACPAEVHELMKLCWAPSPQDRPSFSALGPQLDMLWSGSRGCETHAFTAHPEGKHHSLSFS
Method in brief: as §1

PAK2(h) = PAK2(h) (Homo sapiens, UniProt Q13177)
PAK2(h), sequence (Q13177 whole entry): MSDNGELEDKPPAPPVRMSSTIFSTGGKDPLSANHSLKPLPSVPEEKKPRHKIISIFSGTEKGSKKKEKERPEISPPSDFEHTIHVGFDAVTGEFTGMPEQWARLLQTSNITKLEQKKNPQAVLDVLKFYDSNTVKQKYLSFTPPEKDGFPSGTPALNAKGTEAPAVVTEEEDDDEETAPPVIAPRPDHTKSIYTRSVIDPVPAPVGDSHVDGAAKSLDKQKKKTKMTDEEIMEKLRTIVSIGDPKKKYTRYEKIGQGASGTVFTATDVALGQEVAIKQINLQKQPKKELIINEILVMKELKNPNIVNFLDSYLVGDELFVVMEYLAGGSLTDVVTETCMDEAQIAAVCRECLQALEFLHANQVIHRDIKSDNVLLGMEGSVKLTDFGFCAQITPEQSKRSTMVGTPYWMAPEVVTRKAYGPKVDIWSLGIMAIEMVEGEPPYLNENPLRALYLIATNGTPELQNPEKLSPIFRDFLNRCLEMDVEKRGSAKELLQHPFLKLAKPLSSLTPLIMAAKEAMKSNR
Method in brief: as §1

Flt3(h) = biological target: T2, Flt3(h) (Homo sapiens, UniProt P36888)
T2 sequence (P36888 27-993): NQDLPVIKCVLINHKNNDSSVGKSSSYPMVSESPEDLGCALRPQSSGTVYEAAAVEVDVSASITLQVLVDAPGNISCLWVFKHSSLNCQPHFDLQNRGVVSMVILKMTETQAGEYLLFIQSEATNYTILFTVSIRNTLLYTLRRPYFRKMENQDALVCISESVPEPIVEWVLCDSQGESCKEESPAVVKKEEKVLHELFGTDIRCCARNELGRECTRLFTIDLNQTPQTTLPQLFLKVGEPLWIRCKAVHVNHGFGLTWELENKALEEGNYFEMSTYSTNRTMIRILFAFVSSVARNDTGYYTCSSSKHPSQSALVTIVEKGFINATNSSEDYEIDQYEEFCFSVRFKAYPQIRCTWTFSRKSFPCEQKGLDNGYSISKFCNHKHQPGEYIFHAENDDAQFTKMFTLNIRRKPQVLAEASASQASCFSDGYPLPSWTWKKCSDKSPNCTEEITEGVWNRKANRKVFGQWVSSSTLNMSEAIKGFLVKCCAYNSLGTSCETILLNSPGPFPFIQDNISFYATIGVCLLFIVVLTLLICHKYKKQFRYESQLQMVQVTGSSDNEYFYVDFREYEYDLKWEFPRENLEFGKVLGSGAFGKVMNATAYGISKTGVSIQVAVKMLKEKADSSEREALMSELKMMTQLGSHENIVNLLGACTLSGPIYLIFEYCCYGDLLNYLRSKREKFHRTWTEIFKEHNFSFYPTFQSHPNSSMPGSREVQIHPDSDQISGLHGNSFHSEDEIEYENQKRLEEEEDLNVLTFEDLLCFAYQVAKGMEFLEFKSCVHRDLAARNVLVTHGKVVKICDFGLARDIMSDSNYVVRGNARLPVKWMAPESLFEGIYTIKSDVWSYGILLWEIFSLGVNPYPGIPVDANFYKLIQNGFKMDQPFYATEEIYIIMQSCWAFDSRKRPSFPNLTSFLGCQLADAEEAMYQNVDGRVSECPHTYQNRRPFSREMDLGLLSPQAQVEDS
Method in brief: as §1

Arg(h) = Arg(h) (Homo sapiens, UniProt P42684)
Arg(h), sequence (P42684 whole entry): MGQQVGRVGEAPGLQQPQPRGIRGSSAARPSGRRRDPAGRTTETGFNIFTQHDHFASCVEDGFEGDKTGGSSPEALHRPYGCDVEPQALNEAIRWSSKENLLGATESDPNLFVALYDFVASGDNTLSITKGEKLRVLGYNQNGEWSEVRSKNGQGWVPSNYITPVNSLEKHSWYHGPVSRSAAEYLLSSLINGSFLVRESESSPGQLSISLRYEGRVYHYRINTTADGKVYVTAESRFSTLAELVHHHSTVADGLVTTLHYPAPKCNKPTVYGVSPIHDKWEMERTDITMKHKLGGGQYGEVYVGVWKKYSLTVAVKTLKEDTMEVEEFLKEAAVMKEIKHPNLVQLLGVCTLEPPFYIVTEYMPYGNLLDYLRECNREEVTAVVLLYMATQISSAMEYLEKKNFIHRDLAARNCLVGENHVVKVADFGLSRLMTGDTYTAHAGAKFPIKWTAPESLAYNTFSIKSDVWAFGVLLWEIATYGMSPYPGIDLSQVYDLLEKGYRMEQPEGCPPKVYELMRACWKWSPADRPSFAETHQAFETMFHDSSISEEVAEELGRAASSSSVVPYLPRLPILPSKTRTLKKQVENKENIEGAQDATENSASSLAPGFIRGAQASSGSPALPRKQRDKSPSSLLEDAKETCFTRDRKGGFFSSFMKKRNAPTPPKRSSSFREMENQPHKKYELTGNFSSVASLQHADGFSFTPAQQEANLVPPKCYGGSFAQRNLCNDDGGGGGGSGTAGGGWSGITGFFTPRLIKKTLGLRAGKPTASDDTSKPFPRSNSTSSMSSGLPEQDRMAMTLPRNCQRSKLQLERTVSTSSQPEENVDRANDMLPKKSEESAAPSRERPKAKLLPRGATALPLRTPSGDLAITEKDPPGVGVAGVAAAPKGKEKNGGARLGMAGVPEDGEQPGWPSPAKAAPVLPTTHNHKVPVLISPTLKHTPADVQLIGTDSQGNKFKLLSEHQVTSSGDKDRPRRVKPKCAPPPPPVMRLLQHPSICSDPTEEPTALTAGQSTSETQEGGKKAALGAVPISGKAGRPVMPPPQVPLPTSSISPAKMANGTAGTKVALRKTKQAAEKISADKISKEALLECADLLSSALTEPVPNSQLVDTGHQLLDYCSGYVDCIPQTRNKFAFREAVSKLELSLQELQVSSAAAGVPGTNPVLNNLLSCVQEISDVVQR
Method in brief: as §1

JNK3(h), sequence (P53779 whole entry): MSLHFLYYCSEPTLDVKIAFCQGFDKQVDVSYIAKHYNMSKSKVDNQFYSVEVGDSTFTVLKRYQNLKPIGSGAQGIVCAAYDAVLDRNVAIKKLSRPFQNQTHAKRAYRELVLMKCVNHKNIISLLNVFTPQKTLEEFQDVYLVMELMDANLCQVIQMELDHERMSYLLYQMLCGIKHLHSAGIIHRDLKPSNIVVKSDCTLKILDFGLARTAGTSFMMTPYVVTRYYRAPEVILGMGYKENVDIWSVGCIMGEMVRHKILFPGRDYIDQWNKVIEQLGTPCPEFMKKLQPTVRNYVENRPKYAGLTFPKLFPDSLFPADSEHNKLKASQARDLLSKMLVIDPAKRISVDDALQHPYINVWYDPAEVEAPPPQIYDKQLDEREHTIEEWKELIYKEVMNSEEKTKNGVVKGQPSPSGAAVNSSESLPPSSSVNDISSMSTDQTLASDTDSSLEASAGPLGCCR

inhibition at 1 µM (JNK3(h)) | inhibition at 1 µM (JAK3(h)) | inhibition at 1 µM (PAK2(h)) | inhibition at 1 µM (Flt3(h)) | inhibition at 1 µM (Arg(h)) | SMILES
99% | 76% | 18% | 102% | 96% | Nc1n[nH]c2ccc(-c3ccnc4[nH]c(-c5ccccc5)cc34)cc12 [Compound 4]
86% | 30% | 1% | 46% | 76% | Nc1n[nH]c2ccc(-c3ccnc4[nH]c(-c5cccc(OCc6ccccc6)c5)cc34)cc12 [Compound 5r [SU1261]]
62% | 18% | 0% | 36% | 24% | Nc1n[nH]c2ccc(-c3ccnc4[nH]c(-c5ccnc(OCc6ccccc6)c5)cc34)cc12 [Compound 6g [SU1349]]
